Converted amounts (≈) assume the structure as drawn. Read-outs that look alike come from different tables or passages of the source.
Assays:
[1] = system: C. albicans NCPF3281; experiment: Candida panel MIC, serial dilution in 96-well plates; type: cell-based, Candida albicans; conditions: Candida albicans, NCPF3281; Table 4, common panel; 24 hours, ≥50% inhibition; read-out: MIC C. albicans NCPF3281
Protocol: (§1) The minimum inhibitory concentration of test compounds were determined in a panel of Candida species (see Table 4 below), using the a serial dilution method in 96-well plates using the following protocol.
(§2) Starter cultures of fungal strains to be tested were grown in 3 mL of RPMI 2% glucose media incubated at 37° C. with shaking at 200 rpm overnight. The culture media used was 900 mL H2O; 10.4 g RPMI 1640 (with L-glutamine and a pH indicator but without bicarbonate); 34.5 g MOPS and 18 g glucose. The pH of the media was adjusted to 7.0 with 1 M sodium hydroxide.
(§3) Solutions of the compound to be tested were prepared by dissolving the compound in DMSO and subsequently into media to the desired concentrations. 200 μL of compound solution was then added to the wells of the 96-well plate using a serial dilution method row-by row of the plate to give a compound concentration gradient across the plate of from 128 μg/mL to 0.25 μg/mL. The last two rows of each plate were control rows containing the culture media alone and the media plus fungi.
(§4) The fungi starter cultures were diluted 1:10 in water in cuvettes. This was then further diluted to an optical density (OD600) of 0.01 in media. 100 μL of the fungi was added to each well giving a starting concentration of fungus of 0.5-5×10^5/mL. One species of fungus was used on each plate. The plates were then held at 37° C. for 24 hours.
(§5) A plate reader was used to measure growth in each well at OD530 nm and the MIC was determined for each test compound. The MIC is defined as the lowest concentration giving rise to inhibition of ≥50% of that of the drug-free control well containing the fungus and media.

[2] = system: C. glabrata NCPF8018; experiment: as above; type: cell-based, Candida glabrata; conditions: Nakaseomyces glabratus
Protocol: as §1, §2
(§6) Solutions of the compound to be tested were prepared by dissolving the compound in DMSO and subsequently into media to the desired concentrations. […] The last two rows of each plate were control rows containing the culture media alone and the media plus fungi.
as §4, §5

[3] = system: C. krusei NCPF3876; experiment: microbe, parasite or virus in culture; type: cell-based, Candida krusei; conditions: Pichia kudriavzevii
Protocol: as §1, §2, §6, §4, §5

[4] = system: C. parapsilosis NCPF3209; experiment: microbe, parasite or virus in culture; type: cell-based, Candida parapsilosis; conditions: Lodderomyces parapsilosis
Protocol: as §1, §2, §6, §4, §5

[5] = system: Candida auris TDG2211; experiment: microbe, parasite or virus in culture; type: cell-based; conditions: Candidozyma auris, TDG2211; Table 4, extended panel; 24 hours, ≥50% inhibition; read-out: MIC Candida auris TDG2211
Protocol: as §1, §2, §6, §4, §5
(§7) The Candida auris strains shown in Table 7 were either taken from the National Collection of Pathogenic Fungi (NCPF) or collected as part of ongoing surveillance studies. The strains were characterised as follows.

[6] = system: Candida auris TDG2506; experiment: microbe, parasite or virus in culture; type: cell-based; conditions: Candidozyma auris, TDG2506; Table 4, extended panel; 24 hours, ≥50% inhibition; read-out: MIC Candida auris TDG2506
Protocol: as §1, §2, §6, §4, §5, §7

[7] = system: C. auris TDG1912; experiment: Candida panel MIC, serial dilution in 96-well plates; type: cell-based; conditions: Candidozyma auris, TDG1912; Table 4; 24 hours, ≥50% inhibition; read-out: MIC C. auris TDG1912
Protocol: as §1, §2, §3, §4, §5

[8] = system: C. tropicalis NCPF8760; experiment: as above; type: cell-based
Protocol: as §1, §2, §3, §4, §5

[9] = system: Candida auris TDG1102; experiment: as above; type: cell-based; conditions: Candidozyma auris, TDG1102; Table 4, extended panel; 24 hours, ≥50% inhibition; read-out: MIC Candida auris TDG1102
Protocol: as §1, §2, §3, §4, §5

[10] = system: Candida auris TDG2512; experiment: as above; type: cell-based; conditions: Candidozyma auris, TDG2512; Table 4, extended panel; 24 hours, ≥50% inhibition; read-out: MIC Candida auris TDG2512
Protocol: as §1, §2, §3, §4, §5

[11] = system: C. auris 8971; experiment: as above; type: cell-based, Candida auris; conditions: Candidozyma auris, 8971; Table 4, extended panel; 24 hours, ≥50% inhibition; read-out: MIC C. auris 8971
Protocol: as §1, §2, §6, §4, §5, §7

[12] = system: C. auris 8977; experiment: as above; type: cell-based, Candida auris; conditions: Candidozyma auris, 8977; Table 4, extended panel; 24 hours, ≥50% inhibition; read-out: MIC C. auris 8977
Protocol: as §1, §2, §6, §4, §5, §7

[13] = system: C. auris 8984; experiment: as above; type: cell-based, Candida auris; conditions: Candidozyma auris, 8984; Table 4, extended panel; 24 hours, ≥50% inhibition; read-out: MIC C. auris 8984
Protocol: as §1, §2, §6, §4, §5, §7

[14] = NCPF8018, Table 4, common panel, 24 hours, ≥50% inhibition, read-out: MIC C. glabrata NCPF8018
[15] = NCPF3876, Table 4, common panel, 24 hours, ≥50% inhibition, read-out: MIC C. krusei NCPF3876
[16] = NCPF3209, Table 4, common panel, 24 hours, ≥50% inhibition, read-out: MIC C. parapsilosis NCPF3209
[17] = NCPF8760, Table 4, common panel, 24 hours, ≥50% inhibition, read-out: MIC C. tropicalis NCPF8760

Row | SMILES | MIC [1] | MIC [2, 14] | MIC [3, 15] | MIC [4, 16] | MIC [5] | MIC [6] | MIC [7] | MIC [8, 17] | MIC [9] | MIC [10] | MIC [11] | MIC [12] | MIC [13] | MIC ([2]; NCPF8018, read-out: MIC C. Glabrata NCPF8018) | MIC ([3]; NCPF3876, read-out: MIC C. Krusei NCPF3876) | MIC ([4]; NCPF3209, read-out: MIC C. Parapsilosis NCPF3209) | MIC ([8]; NCPF8760, read-out: MIC C. Tropicalis NCPF8760)
1 | OC(CN1CCCN(c2ncc(F)cn2)CC1)(Cn1cncn1)c1ccc(F)cc1F (stereo not drawn) [Example 8, 2-(2,4-Difluorophenyl)-1-(4-(5-fluoropyrimidin-2-yl)-1,4-diazepan-1-yl)-3-(1H-1,2,4-triazol-1-yl)propan-2-ol] | < 15 ng/mL | 250 ng/mL (≈ 0.577 µM) | 500 ng/mL (≈ 1.15 µM) | 15 ng/mL (≈ 0.0346 µM) | 1000 ng/mL (≈ 2.31 µM) | 8000 ng/mL (≈ 18.5 µM) | 2000 ng/mL (≈ 4.61 µM) | 1000 ng/mL (≈ 2.31 µM) | 1000 ng/mL (≈ 2.31 µM) | 2000 ng/mL (≈ 4.61 µM) | 120 ng/mL (≈ 0.277 µM) | 120 ng/mL (≈ 0.277 µM) | 120 ng/mL (≈ 0.277 µM) |  |  |  | 
2 | OC(CN1CCCC(Nc2ccc(Cc3ccccc3)cc2)CC1)(Cn1cncn1)c1ccc(F)cc1F (stereo not drawn) [Example 9, 1-(4-((4-Benzylphenyl)amino)azepan-1-yl)-2-(2,4-difluorophenyl)-3-(1H-1,2,4-triazol-1-yl)propan-2-ol] | < 4 ng/mL | 125 ng/mL (≈ 0.241 µM) | 8 ng/mL (≈ 0.0155 µM) | ≤ 0.06 ng/mL | 250 ng/mL (≈ 0.483 µM) | 500 ng/mL (≈ 0.966 µM) | 500 ng/mL (≈ 0.966 µM) | 125 ng/mL (≈ 0.241 µM) | 1000 ng/mL (≈ 1.93 µM) | 125 ng/mL (≈ 0.241 µM) | 120 ng/mL (≈ 0.232 µM) | 0.1 ng/mL (≈ 0.000193 µM) | 120 ng/mL (≈ 0.232 µM) | 125 ng/mL (≈ 0.241 µM) | 8 ng/mL (≈ 0.0155 µM) | ≤ 0.06 ng/mL | 500 ng/mL (≈ 0.966 µM)
3 | OC(CN1CCC(N2CCC(Nc3ncc(F)cn3)CC2)CC1)(Cn1cncn1)c1ccc(F)cc1F (stereo not drawn) [Example 10, 2-(2,4-Difluorophenyl)-1-(4-((5-fluoropyrimidin-2-yl)amino)-[1,4′-bipiperidin]-1′-yl)-3-(1H-1,2,4-triazol-1-yl)propan-2-ol] | 15 ng/mL (≈ 0.029 µM) | 64000 ng/mL (≈ 124 µM) | 32000 ng/mL (≈ 61.9 µM) | 125 ng/mL (≈ 0.242 µM) | 64000 ng/mL (≈ 124 µM) | 8000 ng/mL (≈ 15.5 µM) | 4000 ng/mL (≈ 7.74 µM) | 64000 ng/mL (≈ 124 µM) | 4000 ng/mL (≈ 7.74 µM) | 500 ng/mL (≈ 0.968 µM) | 500 ng/mL (≈ 0.968 µM) | 1000 ng/mL (≈ 1.94 µM) | 500 ng/mL (≈ 0.968 µM) |  |  |  | 
4 | OC(CN1CCC(N2CCC(Nc3ccccc3)CC2)CC1)(Cn1cncn1)c1ccc(F)cc1F (stereo not drawn) [Example 14, 2-(2,4-difluorophenyl)-1-(4-(phenylamino)-[1,4′-bipiperidin]-1′-yl)-3-(1H-1,2,4-triazol-1-yl)propan-2-ol] | ≤ 125 ng/mL | 16000 ng/mL (≈ 32.2 µM) | 4000 ng/mL (≈ 8.05 µM) | ≤ 125 ng/mL | ≤ 125 ng/mL | 2000 ng/mL (≈ 4.03 µM) | 1000 ng/mL (≈ 2.01 µM) | 32000 ng/mL (≈ 64.4 µM) | 1000 ng/mL (≈ 2.01 µM) | 250 ng/mL (≈ 0.503 µM) | 250 ng/mL (≈ 0.503 µM) | 250 ng/mL (≈ 0.503 µM) | 1000 ng/mL (≈ 2.01 µM) |  |  |  | 
5 | OC(CN1CC2CN(c3ncc(F)cn3)CC2C1)(Cn1cncn1)c1ccc(F)cc1F (stereo not drawn) [Example 15, 2-(2,4-difluorophenyl)-1-(5-(5-fluoropyrimidin-2-yl)hexahydropyrrolo[3,4-c]pyrrol-2(1H)-yl)-3-(1H-1,2,4-triazol-1-yl)propan-2-ol] | 120 ng/mL (≈ 0.269 µM) | 1000 ng/mL (≈ 2.24 µM) | 4000 ng/mL (≈ 8.98 µM) | 125 ng/mL (≈ 0.281 µM) | 4000 ng/mL (≈ 8.98 µM) | > 128000 ng/mL | 8000 ng/mL (≈ 18 µM) | 8000 ng/mL (≈ 18 µM) | 8000 ng/mL (≈ 18 µM) | 4000 ng/mL (≈ 8.98 µM) | 500 ng/mL (≈ 1.12 µM) | 1000 ng/mL (≈ 2.24 µM) | 32000 ng/mL (≈ 71.8 µM) |  |  |  | 
6 | OC(CN1C[C@H]2CC(Nc3ccc(Cc4ccccc4)cc3)C[C@H]2C1)(Cn1cncn1)c1ccc(F)cc1F (stereo partly drawn) [Example 16, 1-((3aR,6aS)-5-((4-benzylphenyl)amino)hexahydrocyclopenta[c]pyrrol-2(1H)-yl)-2-(2,4-difluorophenyl)-3-(1H-1,2,4-triazol-1-yl)propan-2-ol] | ≤ 125 ng/mL | ≤ 125 ng/mL | ≤ 125 ng/mL | ≤ 125 ng/mL | ≤ 125 ng/mL | 500 ng/mL (≈ 0.944 µM) | 1000 ng/mL (≈ 1.89 µM) | 1000 ng/mL (≈ 1.89 µM) | 1000 ng/mL (≈ 1.89 µM) | ≤ 125 ng/mL | ≤ 125 ng/mL | ≤ 125 ng/mL | 1000 ng/mL (≈ 1.89 µM) |  |  |  | 
7 | OC(CN1CCC(Nc2ccc(Cc3ccc(F)cc3)cc2)CC1)(Cn1cncn1)c1ccc(F)cc1F (stereo not drawn) [Example 30, 2-(2,4-difluorophenyl)-1-(4-((4-(4-fluorobenzyl)phenyl)amino)piperidin-1-yl)-3-(1H-1,2,4-triazol-1-yl)propan-2-ol] | ≤ 125 ng/mL | ≤ 125 ng/mL | ≤ 125 ng/mL | ≤ 125 ng/mL | ≤ 125 ng/mL | ≤ 125 ng/mL | ≤ 125 ng/mL | ≤ 125 ng/mL | ≤ 125 ng/mL | ≤ 125 ng/mL | ≤ 125 ng/mL | ≤ 125 ng/mL | ≤ 125 ng/mL |  |  |  | 
8 | OC(CN1CCC(Nc2ccc(OCc3ccncc3)cc2)CC1)(Cn1cncn1)c1ccc(F)cc1F (stereo not drawn) [Example 81] | 7.81 ng/mL (≈ 0.015 µM) | 2000 ng/mL (≈ 3.84 µM) | 125 ng/mL (≈ 0.24 µM) | 7.81 ng/mL (≈ 0.015 µM) | 31.3 ng/mL (≈ 0.0601 µM) | 125 ng/mL (≈ 0.24 µM) | 31.3 ng/mL (≈ 0.0601 µM) | 500 ng/mL (≈ 0.96 µM) | 62.5 ng/mL (≈ 0.12 µM) | 7.81 ng/mL (≈ 0.015 µM) | 15.6 ng/mL (≈ 0.03 µM) | 15.6 ng/mL (≈ 0.03 µM) | 125 ng/mL (≈ 0.24 µM) |  |  |  | 

From US20240246920A1, “TRIAZOLE DERIVATIVES WITH ANTIFUNGAL ACTIVITY” (King's College London, priority 2020, published 2024)
